Assay results taken from the NIST ThermoML archive (doi:10.1021/je501118w).
Several values for one entry are separate records, joined by “and”; a condition that tells them apart may be missing. Identical values can stand only once. ± gives the expanded uncertainty stated by the source.

Conditions: Liquid, Vibrating tube method

CCCC[n+]1ccn(C)c1.O=S(=O)([N-]S(=O)(=O)C(F)(F)F)C(F)(F)F
Conditions	mass density
273.15 K, 100 kPa	1460.67 ± 0.83 kg/m3
278.15 K, 100 kPa	1455.84 ± 0.83 kg/m3
283.15 K, 100 kPa	1451.04 ± 0.83 kg/m3
288.15 K, 100 kPa	1446.23 ± 0.82 kg/m3
288.15 K, 10320 kPa	1453.8 ± 3.1 kg/m3
288.15 K, 15130 kPa	1457.1 ± 3.1 kg/m3
288.15 K, 20090 kPa	1460.4 ± 3.1 kg/m3
288.15 K, 24820 kPa	1463.6 ± 3.2 kg/m3
288.15 K, 25120 kPa	1463.3 ± 3.2 kg/m3
288.15 K, 30620 kPa	1467.3 ± 3.2 kg/m3
288.15 K, 39770 kPa	1473 ± 3.3 kg/m3
288.15 K, 49640 kPa	1478.8 ± 3.3 kg/m3
288.15 K, 50970 kPa	1479.2 ± 3.3 kg/m3
288.15 K, 76000 kPa	1493.8 ± 3.6 kg/m3
288.15 K, 100500 kPa	1506 ± 3.9 kg/m3
288.15 K, 124500 kPa	1517.8 ± 4.2 kg/m3
288.15 K, 150400 kPa	1528.9 ± 4.6 kg/m3
288.15 K, 151000 kPa	1529.4 ± 4.6 kg/m3
288.15 K, 175100 kPa	1539.3 ± 5 kg/m3
288.15 K, 199900 kPa	1548.8 ± 5.4 kg/m3
288.16 K, 99600 kPa	1506 ± 3.8 kg/m3
293.15 K, 100 kPa	1441.43 ± 0.82 kg/m3 and 1441.42 ± 0.82 kg/m3
298.15 K, 100 kPa	1436.64 ± 0.82 kg/m3 and 1436.6 ± 0.82 kg/m3
298.15 K, 9760 kPa	1444.2 ± 3.1 kg/m3
298.15 K, 15200 kPa	1448.1 ± 3.1 kg/m3
298.15 K, 24770 kPa	1454.6 ± 3.2 kg/m3
298.15 K, 24930 kPa	1454.4 ± 3.2 kg/m3
298.15 K, 39560 kPa	1464.3 ± 3.2 kg/m3
298.15 K, 50280 kPa	1470.6 ± 3.3 kg/m3
298.15 K, 100700 kPa	1498.7 ± 3.8 kg/m3
298.15 K, 124500 kPa	1510.5 ± 4.2 kg/m3
298.15 K, 150300 kPa	1522.1 ± 4.6 kg/m3
298.15 K, 174400 kPa	1532.5 ± 5 kg/m3
298.15 K, 200400 kPa	1543.2 ± 5.4 kg/m3 and 1542.9 ± 5.4 kg/m3
298.15 K, 249600 kPa	1561.5 ± 6.4 kg/m3
298.16 K, 20120 kPa	1451.5 ± 3.1 kg/m3
298.16 K, 30400 kPa	1458.4 ± 3.2 kg/m3
298.16 K, 50110 kPa	1470.9 ± 3.3 kg/m3
298.16 K, 75200 kPa	1485.4 ± 3.6 kg/m3
298.16 K, 100200 kPa	1498.6 ± 3.9 kg/m3
298.16 K, 150100 kPa	1522.3 ± 4.6 kg/m3
298.16 K, 225500 kPa	1553 ± 5.9 kg/m3
303.15 K, 100 kPa	1431.86 ± 0.82 kg/m3
313.15 K, 100 kPa	1422.34 ± 0.81 kg/m3
323.15 K, 100 kPa	1412.87 ± 0.8 kg/m3 and 1412.85 ± 0.8 kg/m3
323.15 K, 15150 kPa	1424.4 ± 3.1 kg/m3
323.15 K, 24310 kPa	1431.5 ± 3.1 kg/m3
323.15 K, 24670 kPa	1431.2 ± 3.1 kg/m3
323.15 K, 30100 kPa	1435.1 ± 3.2 kg/m3
323.15 K, 39780 kPa	1441.8 ± 3.2 kg/m3
323.15 K, 49910 kPa	1448.4 ± 3.3 kg/m3
323.15 K, 50470 kPa	1449.4 ± 3.3 kg/m3
323.15 K, 75400 kPa	1463.9 ± 3.5 kg/m3
323.15 K, 99600 kPa	1478.1 ± 3.8 kg/m3
323.15 K, 100500 kPa	1478 ± 3.8 kg/m3
323.15 K, 124700 kPa	1490.3 ± 4.1 kg/m3
323.15 K, 149600 kPa	1502.1 ± 4.5 kg/m3 and 1502.8 ± 4.5 kg/m3
323.15 K, 174600 kPa	1513 ± 4.8 kg/m3
323.15 K, 200000 kPa	1524.7 ± 5.3 kg/m3
323.15 K, 225000 kPa	1533.7 ± 5.7 kg/m3
323.15 K, 251500 kPa	1543 ± 6.3 kg/m3
323.16 K, 10250 kPa	1420.7 ± 3.1 kg/m3
323.16 K, 20180 kPa	1428.1 ± 3.1 kg/m3
323.16 K, 201000 kPa	1524.3 ± 5.3 kg/m3
333.15 K, 100 kPa	1403.48 ± 0.8 kg/m3
343.15 K, 100 kPa	1394.15 ± 0.79 kg/m3
348.15 K, 10050 kPa	1397.8 ± 3.1 kg/m3
348.15 K, 15200 kPa	1402 ± 3.1 kg/m3
348.15 K, 20220 kPa	1405.9 ± 3.1 kg/m3
348.15 K, 24790 kPa	1410.4 ± 3.1 kg/m3
348.15 K, 24830 kPa	1409.3 ± 3.1 kg/m3
348.15 K, 30300 kPa	1413.4 ± 3.2 kg/m3
348.15 K, 39980 kPa	1420.5 ± 3.2 kg/m3
348.15 K, 49890 kPa	1427.3 ± 3.3 kg/m3
348.15 K, 50730 kPa	1429.7 ± 3.3 kg/m3
348.15 K, 75400 kPa	1443.5 ± 3.5 kg/m3
348.15 K, 100300 kPa	1460.9 ± 3.8 kg/m3
348.15 K, 100500 kPa	1458.5 ± 3.8 kg/m3
348.15 K, 125100 kPa	1471.9 ± 4 kg/m3
348.15 K, 150000 kPa	1484.2 ± 6.5 kg/m3
348.15 K, 150500 kPa	1487.2 ± 6.5 kg/m3
348.15 K, 174700 kPa	1495.6 ± 4.8 kg/m3
348.15 K, 199200 kPa	1509.2 ± 5.4 kg/m3
348.15 K, 200600 kPa	1506.6 ± 5.4 kg/m3
348.15 K, 225700 kPa	1517 ± 5.6 kg/m3
348.15 K, 250700 kPa	1526.9 ± 6.1 kg/m3
353.15 K, 100 kPa	1384.88 ± 0.79 kg/m3
363.15 K, 100 kPa	1375.67 ± 0.78 kg/m3

CCCCCC[n+]1ccn(C)c1.O=S(=O)([N-]S(=O)(=O)C(F)(F)F)C(F)(F)F
Conditions	mass density
273.15 K, 101.33 kPa	1395.63 ± 0.8 kg/m3 and 1395.14 ± 0.8 kg/m3 and 1395.28 ± 0.8 kg/m3
278.15 K, 101.33 kPa	1390.37 ± 0.79 kg/m3 and 1390.93 ± 0.79 kg/m3
283.15 K, 101.33 kPa	1385.72 ± 0.79 kg/m3 and 1385.89 ± 0.79 kg/m3 and 1386.23 ± 0.79 kg/m3
288.15 K, 101.33 kPa	1381.16 ± 0.79 kg/m3 and 1381.54 ± 0.79 kg/m3
288.15 K, 14950 kPa	1393.3 ± 3.1 kg/m3
288.15 K, 20180 kPa	1396.8 ± 3.1 kg/m3
288.15 K, 25080 kPa	1400 ± 3.1 kg/m3
288.15 K, 30100 kPa	1403.2 ± 3.1 kg/m3
288.15 K, 40120 kPa	1409.5 ± 3.2 kg/m3
288.15 K, 49940 kPa	1415.3 ± 3.3 kg/m3
288.15 K, 75500 kPa	1429.5 ± 3.5 kg/m3
288.15 K, 124700 kPa	1453.9 ± 4 kg/m3
288.15 K, 174600 kPa	1474.9 ± 4.6 kg/m3
288.16 K, 100000 kPa	1442.2 ± 3.7 kg/m3
288.16 K, 150500 kPa	1465 ± 4.3 kg/m3
293.15 K, 101.33 kPa	1376.86 ± 0.79 kg/m3 [middle of 4 runs]
298.15 K, 101.33 kPa	1372.17 ± 0.78 kg/m3 [middle of 4 runs]
303.15 K, 101.33 kPa	1367.48 ± 0.78 kg/m3 and 1367.61 ± 0.78 kg/m3
313.15 K, 101.33 kPa	1358.37 ± 0.78 kg/m3 and 1358.51 ± 0.78 kg/m3 and 1358.44 ± 0.78 kg/m3
323.15 K, 101.33 kPa	1349.3 ± 0.77 kg/m3 and 1349.43 ± 0.77 kg/m3 and 1349.35 ± 0.77 kg/m3
333.15 K, 101.33 kPa	1340.33 ± 0.77 kg/m3 and 1340.27 ± 0.77 kg/m3 and 1340.4 ± 0.77 kg/m3
343.15 K, 101.33 kPa	1331.36 ± 0.76 kg/m3 and 1331.29 ± 0.76 kg/m3 and 1331.38 ± 0.76 kg/m3
353.15 K, 101.33 kPa	1322.46 ± 0.76 kg/m3 and 1322.34 ± 0.76 kg/m3 and 1322.43 ± 0.76 kg/m3
363.15 K, 101.33 kPa	1313.62 ± 0.75 kg/m3 and 1313.44 ± 0.75 kg/m3 and 1313.52 ± 0.75 kg/m3
